Reference: patent publication EP4775574A1, “FURAN RING-CONTAINING COMPOUND, PHARMACEUTICAL COMPOSITION THEREOF, AND USE THEREOF” (Wuhan Xirui Pharmaceutical Technology Co., Ltd, priority 2023, dated 2025)
Read-outs that look alike come from different tables or passages of the source.

How the values were obtained:
hNav1.8 = molecular target: T1, hNav1.8 (Homo sapiens, UniProt Q9Y5Y9); assay: Manual patch-clamp IC50 on hNav1.8 channel current (HEK293 hNav1.8/β3); format: cell-based; conditions: HEK293 stably expressing hNav1.8/β3, n = 2, read-out: Inhibitory activity (IC50)
T1 construct: host or cells: HEK293
Procedure: This experiment was performed by detecting the influence of 5 concentrations of the compound or a single point or two concentration points on the hNav1.8 channel current, the dose-response curve of the compound was obtained, and the IC50 was calculated. This experiment was conducted to include two parallel sample determinations.
• 1) Cells: The HEK293 cell line that stably expressed the hNav1.8/β3 ion channel was prepared in-house by the Biology Department of Pharmaron (Beijing) Co., Ltd. (The lentiviral vectors that respectively expressed human Nav1.8 and β3 were transduced into HEK293, and it was prepared after screening. Specific reference: Proc Natl Acad Sci U S A. 2022 Jul 26;119(30):e2208211119. doi: 10.1073/pnas.2208211119. and the Cell Lines / BSYS CHO NaV1.8/β3 Cell Line manual.). The cell line was cultured in a medium containing 90% DMEM, 10% fetal bovine serum, 100 U/mL penicillin-streptomycin solution, 0.75 µg/mL puromycin, and 100 µg/mL hygromycin. When the cell density had grown to 40% to 80% of the bottom area of the culture dish, digestion was performed with trypsin, and passage was carried out three times per week. […]

[1] = Pharmacokinetic determination in KM mice; format: in vivo
Procedure: Using KM mice as test animals, the pharmacokinetic behavior of the compounds in the examples in mouse plasma after administration by gavage at a dose of 10 mg/kg or by intravenous injection at a dose of 1 mg/kg was studied.
Male SPF-grade KM mice, with body weight (20 ± 2) g.
Drug preparation for the intragastric administration group: The drug concentration was prepared as 1 mg/mL, and the preparation solvent was Tween80 + 0.5% MC (v/v 1:99).
Drug preparation for the intravenous administration group: The drug concentration was prepared as 0.2 mg/mL, and the preparation solvent was 5% DMA + 5% Solutol HS-15 + 90% normal saline.
Intragastric administration group: The administration dose was 10 mg/kg, and the administration volume was 10 mL/kg.
Intravenous administration group: The administration dose was 1 mg/kg, and the administration volume was 5 mL/kg.
Intragastric administration: Blood was collected from mice before administration (0 h) and after administration at 0, 0.25 h, 0.5 h, 1 h, 2 h, 4 h, 6 h, 8 h, 10 h, and 24 h. Intravenous injection: Blood was collected before administration (0 h) and after administration at 5, 15, 30 min, 1, 2, 4, 6, 8, and 24 h.
Blood, approximately 0.1 mL, was collected by retro-orbital puncture and placed into EDTA-K2 anticoagulant tubes with labels. After blood collection, the tubes were gently and completely inverted three times to mix with the anticoagulant. The samples were then immediately placed in an ice-water bath and centrifuged at 4500 rpm for 10 min at 4°C. After centrifugation, the plasma was promptly aliquoted into EP tubes with corresponding labels and stored in a -80°C freezer.
After administration, 20 µL of mouse plasma was taken and placed into a 96-deep-well plate pre-filled with 20 µL of internal standard working solution. Methanol (400 µL) as the precipitating agent was added, vortexed for 10 min, and centrifuged at 4000 rpm for 15 min. A supernatant of 200 µL was transferred into another 96-deep-well plate pre-filled with 200 µL of ultrapure water, vortexed for 5 min, and centrifuged at 4000 rpm for 3 min. A supernatant of 5 µL was taken for LC-MS/MS analysis of plasma drug concentration.
The main pharmacokinetic parameters were calculated by WinNonlin 7.0, and the pharmacokinetic experimental results of mice are shown in Table 5 below. Table 5: Pharmacokinetic experimental results of mice

[2] = male, KM, mouse, in vivo, iv, 1 mg/kg
[3] = male, KM, mouse, in vivo, po, 10 mg/kg

T1 sequence (Q9Y5Y9 whole entry): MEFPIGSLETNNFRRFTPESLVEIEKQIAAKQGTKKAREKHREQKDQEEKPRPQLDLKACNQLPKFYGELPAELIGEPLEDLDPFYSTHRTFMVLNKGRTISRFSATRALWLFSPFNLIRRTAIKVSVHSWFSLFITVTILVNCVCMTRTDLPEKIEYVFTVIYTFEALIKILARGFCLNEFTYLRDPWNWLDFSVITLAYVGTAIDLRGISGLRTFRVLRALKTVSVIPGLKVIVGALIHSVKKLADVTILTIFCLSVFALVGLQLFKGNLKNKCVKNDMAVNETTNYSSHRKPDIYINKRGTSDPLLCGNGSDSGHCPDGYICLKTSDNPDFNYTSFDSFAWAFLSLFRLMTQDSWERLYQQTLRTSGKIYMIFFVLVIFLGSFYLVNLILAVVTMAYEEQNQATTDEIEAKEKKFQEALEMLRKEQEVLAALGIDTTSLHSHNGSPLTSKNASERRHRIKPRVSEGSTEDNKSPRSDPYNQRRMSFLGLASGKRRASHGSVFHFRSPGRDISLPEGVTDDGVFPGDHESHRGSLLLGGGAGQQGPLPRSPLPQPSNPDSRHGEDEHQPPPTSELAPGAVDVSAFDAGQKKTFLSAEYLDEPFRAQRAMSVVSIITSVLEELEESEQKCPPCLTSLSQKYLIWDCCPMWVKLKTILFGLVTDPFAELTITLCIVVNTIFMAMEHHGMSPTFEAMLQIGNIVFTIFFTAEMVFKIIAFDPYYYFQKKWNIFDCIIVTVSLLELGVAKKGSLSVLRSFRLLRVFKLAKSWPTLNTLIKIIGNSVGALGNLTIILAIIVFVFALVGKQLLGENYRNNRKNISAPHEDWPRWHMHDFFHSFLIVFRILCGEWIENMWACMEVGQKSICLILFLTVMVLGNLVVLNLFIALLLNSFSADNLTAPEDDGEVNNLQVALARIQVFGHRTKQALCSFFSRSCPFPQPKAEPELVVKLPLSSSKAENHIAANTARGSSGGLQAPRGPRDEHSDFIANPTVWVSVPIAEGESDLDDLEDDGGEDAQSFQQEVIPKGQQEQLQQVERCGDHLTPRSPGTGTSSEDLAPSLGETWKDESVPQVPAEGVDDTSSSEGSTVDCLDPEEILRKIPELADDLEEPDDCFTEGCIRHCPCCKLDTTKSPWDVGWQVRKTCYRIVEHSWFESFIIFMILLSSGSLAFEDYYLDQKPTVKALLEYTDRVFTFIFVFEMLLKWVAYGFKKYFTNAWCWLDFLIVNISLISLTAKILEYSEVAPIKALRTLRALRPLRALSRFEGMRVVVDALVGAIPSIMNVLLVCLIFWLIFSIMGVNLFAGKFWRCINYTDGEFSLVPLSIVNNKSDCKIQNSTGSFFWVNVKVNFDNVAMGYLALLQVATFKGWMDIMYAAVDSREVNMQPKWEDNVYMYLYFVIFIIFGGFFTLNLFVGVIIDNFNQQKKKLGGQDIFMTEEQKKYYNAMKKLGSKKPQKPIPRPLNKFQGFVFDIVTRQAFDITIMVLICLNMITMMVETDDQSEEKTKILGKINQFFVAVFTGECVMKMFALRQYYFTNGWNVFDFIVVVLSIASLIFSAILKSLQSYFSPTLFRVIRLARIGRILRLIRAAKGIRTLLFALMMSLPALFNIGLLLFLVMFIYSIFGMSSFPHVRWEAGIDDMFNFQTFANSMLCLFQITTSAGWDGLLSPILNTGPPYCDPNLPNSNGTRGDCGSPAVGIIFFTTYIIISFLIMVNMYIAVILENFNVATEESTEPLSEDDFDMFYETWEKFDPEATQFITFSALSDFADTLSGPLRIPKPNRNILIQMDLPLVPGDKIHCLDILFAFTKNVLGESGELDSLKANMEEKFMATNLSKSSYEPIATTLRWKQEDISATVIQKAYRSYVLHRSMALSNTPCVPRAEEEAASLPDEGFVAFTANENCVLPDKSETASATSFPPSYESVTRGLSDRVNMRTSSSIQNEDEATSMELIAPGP
T1 sequence (Q9NY72 25-215 partner limits assumed): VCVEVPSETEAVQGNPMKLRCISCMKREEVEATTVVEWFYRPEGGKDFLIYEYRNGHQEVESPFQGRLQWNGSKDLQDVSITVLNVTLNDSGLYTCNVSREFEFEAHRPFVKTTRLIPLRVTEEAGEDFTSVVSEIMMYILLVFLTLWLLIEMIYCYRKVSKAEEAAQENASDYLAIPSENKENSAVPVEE

bioavailability ([1]; male, KM, mouse, in vivo) | AUC(0-t) [1, 2] | Clearance CL/F [1, 2] | Cmax [1, 2] | Vd [1, 2] | half-life [1, 2] | AUC(0-t) [1, 3] | Cmax [1, 3] | Tmax [1, 3] | half-life [1, 3] | SMILES | IC50 (hNav1.8) | Peak concentration Cmax/C0 ([1]; KM mice, i.g. 10 mg/kg) | Peak concentration Cmax/C0 ([1]; KM mice, i.v. 1 mg/kg) | Vd ([1]; mouse, in vivo, iv, KM mice, i.v. 1 mg/kg, read-out: Apparent distribution Vss) | AUC(0-t) ([1]; mouse, in vivo, iv, KM mice, i.v. 1 mg/kg, read-out: Area under the curve AUC0-t) | half-life ([1]; mouse, in vivo, iv, KM mice, i.v. 1 mg/kg, read-out: Half-life t1/2 (converted)) | bioavailability ([1]; mouse, in vivo, po, KM mice, i.g. 10 mg/kg vs i.v. 1 mg/kg, read-out: Bioavailability) | AUC(0-t) ([1]; mouse, in vivo, po, KM mice, i.g. 10 mg/kg, read-out: Area under the curve AUC0-t) | half-life ([1]; mouse, in vivo, po, KM mice, i.g. 10 mg/kg, read-out: Half-life t1/2 (converted)) | Tmax ([1]; mouse, in vivo, po, KM mice, i.g. 10 mg/kg, read-out: Time to peak Tmax)
– | – | – | – | – | – | – | – | – | – | C[C@H]1[C@@H](c2ccc(F)c(F)c2OC2COC2)[C@H](C(=O)Nc2ccc(F)c(C(=N)NO)c2)O[C@@]1(C)C(F)(F)F [Example 11] | 229 pM | 3413.33 ng/mL | 612.43 ng/mL | 1.4 L/kg | 1060 ng·h/mL | 1.44 h | 71.4% | 7540 ng·h/mL | 1.37 h | 0.25 h
44.2% | 1020 ng·h/mL | 15.222 mL/min/kg | 621 ng/mL | 2.48 L/kg | 1.99 h | 4530 ng·h/mL | 1330 ng/mL | 1 h | 1.97 h | COc1c([C@H]2[C@H](C(=O)Nc3ccnc(C(N)=O)c3)O[C@@](C)(C(F)(F)F)[C@H]2C)ccc(F)c1F [Reference compound, reference compound] | 297 pM | – | – | – | – | – | – | – | – | –
